Patent EP4620949A1, “ACKR3 MODULATORS FOR CARDIOVASCULAR OR ANTIPLATELET THERAPY” (Eberhard Karls Universität Tübingen (Medizinische Fakultät), priority 2024, dated 2025)
Where “and” joins values, the source holds several entries; their conditions need not be identical. Identical values can stand only once.

test system: platelets; assay: Flow cytometry assay of platelet degranulation (P-Selectin surface expression in PRP); format: cell-based, human; conditions: PRP pre-incubated with compound (100 µM), then CRP-XL (1 µg/mL); % ±SEM normalized to CRP-XL-treated vehicle PRP
Protocol: Platelet Degranulation Studies of Derivatives. Concurrent with the β-Arrestin recruitment potency optimization, the compounds were also tested and developed according to their functional activity. To determine the ability of a compound to modulate platelets, P-Selectin surface expression was measured. P-Selectin is a surface protein involved in cell adhesion mechanisms and can be found on activated platelets. After induction of platelet aggregation in platelet-rich plasma (PRP), treatment with the respective compound should therefore lead to a significant reduction in P-Selectin expression. […]. […]. Similarly, platelet degranulation potency was highly sensitive toward "linker"-changes (Structure C, Table 1). A distinct trend could not be registered. […]. Flow Cytometry Assay. The inhibition of platelet degranulation was determined via flow cytometry experiments. Platelets were treated with collagen-related peptide (CRP-XL, CambCol Laboratories, Cambridge, UK) and the platelets' activation state was determined (Geue, S.; Aurbach, K.; Manke, M.-C.; Manukjan, G.; Münzer, P.; Stegner, D.; Brähler, C.; Walker-Allgaier, B.; Märklin, M.; Borst, C. E.; Quintanilla-Fend, L.; Rath, D.; Geisler, T.; Salih, H. R.; Seizer, P.; Lang, F.; Nieswandt, B.; Gawaz, M.; Schulze, H.; Pleines, I.; Borst, O. Pivotal role of pdk1 in megakaryocyte cytoskeletal dynamics and polarization during platelet biogenesis. Blood 2019, 134, 1847-1858; and Malehmir, M.; Pfister, D.; Gallage, S.; Szydlowska, M.; Inverso, D.; Kotsiliti, E.; Leone, V.; Peiseler, M.; Surewaard, B. G. J.; Rath, D.; Ali, A.; Wolf, M. J.; Drescher, H.; Healy, M. E.; Dauch, D.; Kroy, D.; Krenkel, O.; Kohlhepp, M.; Engleitner, T.; Olkus, A.; Sijmonsma, T.; Volz, J.; Deppermann, C.; Stegner, D.; Helbling, P.; Nombela-Arrieta, C.; Rafiei, A.; Hinterleitner, M.; Rail, M.; Baku, F.; Borst, O.; Wilson, C. L.; Leslie, J.; O'Connor, T.; Wes-ton, C. J.; Chauhan, A.; Adams, D. H.; Sheriff, L.; Teijeiro, A.; Prinz, M.; Bogeska, R.; An-stee, N.; Bongers, M. N.; Notohamiprodjo, M.; Geisler, T.; Withers, D. J.; Ware, J.; Mann, D. A.; Augustin, H. G.; Vegiopoulos, A.; Milsom, M. D.; Rose, A. J.; Lalor, P. F.; Llovet, J. M.; Pinyol, R.; Tacke, F.; Rad, R.; Matter, M.; Djouder, N.; Kubes, P.; Knolle, P. A.; Unger, K.; Zender, L.; Nieswandt, B.; Gawaz, M.; Weber, A.; Heikenwalder, M. Platelet gpibα is a mediator and potential interventional target for nash and subsequent liver cancer. Nat. Med. 2019, 25, 641-655). Briefly, PRP was isolated from peripheral human blood collected in citrate-phosphate-dextrose solution with adenine (CPDA) and diluted with phosphate-buffered saline (PBS) (Sigma Aldrich Co., Ltd., St. Luis, Missouri, USA) supplemented with CaCl2 and MgCl2. PRP (106 platelets /sample) was preincubated with the respective compound (100 µM) for 15 min. Samples were treated with 1 µg/ml CRP-XL (CambCol Laboratories, Cambridge, UK) for 30 min at room temperature in the presence of the respective fluorochrome-conjugated antibody against P-Selectin (CD62P-FITC; Beckman Coulter, Brea, CA, USA). Subsequently, samples were fixed in 0.5% paraformaldehyde and analyzed on a FACS-Calibur flow cytometer (FACS-Caliber flow cytometer, Becton-Dickinson, East Rutherford, NJ, USA). Mean fluorescence intensity (MFI) was used as a quantitative measurement of platelet surface expression.

Compound | P-Selectin expression reduction
O=C(NCCCN(CCCc1ccccc1)Cc1ccccc1)c1ccc(-c2ccccc2)s1 [Compound 30, N-(3-(benzyl(3-phenylpropyl)amino)propyl)-5-phenylthiophene-2-carboxamide] | 1±5%
CC(C)(C)OC(=O)N1CCCN(C(=O)c2csc(-c3ccccc3)n2)CC1 [Compound 45, tert-butyl 4-(2-phenylthiazole-4-carbonyl)-1,4-diazepane-1-carboxylate] | 93%
CC(C)(C)OC(=O)N1CCN(CCCNC(=O)c2csc(-c3ccccc3)n2)CC1 [Compound 46, tert-butyl 4-(3-(2-phenylthiazole-4-carboxamido)propyl)piperazine-1-carboxylate] | 86%
CC(C)(C)OC(=O)N1CCN(CCCNCc2csc(-c3ccccc3)n2)CC1 [Compound 47, tert-butyl 4-(3-(((2-phenylthiazol-4-yl)methyl)amino)propyl)piperazine-1-carboxylate] | 100%
O=C(NCCCN(CCc1ccccc1)Cc1ccccc1)c1ccc(-c2ccccc2)s1 [Compound 29, N-(3-(benzyl(phenethyl)amino)propyl)-5-phenylthiophene-2-carboxamide] | 2±8%
CN(CCCNC(=O)c1ccc(-c2cc(F)cc(F)c2)s1)Cc1ccccc1 [Compound 17, N-(3-(benzyl(methyl)amino)propyl)-5-(3,5-difluorophenyl)thiophene-2-carboxamide] | 81±9%
CCN(CCCNC(=O)c1ccc(-c2cccc(F)c2)s1)Cc1ccc(F)cc1 [Compound 32, N-(3-(ethyl(4-fluorobenzyl)amino)propyl)-5-(3-fluorophenyl)thiophene-2-carboxamide] | 96±1%
CN(CCCNC(=O)c1ccc(-c2ccccc2)s1)Cc1ccccc1F [Compound 21, N-(3-((2-fluorobenzyl)(methyl)amino)propyl)-5-phenylthiophene-2-carboxamide] | 40% and 40±10%

test system: not listed separately; assay: Kinetic solubility assay; format: physicochemical; conditions: mixture 1 vol.% DMSO and 99 vol.% PBS buffer
Protocol: Solubility Assay. A 100 mL flask with phosphate-buffered saline was prepared from NaCl, KCI, Na2HPO4, KH2PO4, and distilled water. The buffer was adjusted to pH 7.4 with HCl. Afterwards, 10mM stock solutions of compounds in DMSO were prepared. 10 µL compound stock solution was added to 990 µL PBS in Eppendorf tubes. As a reference, 10 µL compound stock solution was added to 990 µL HPLC-grade MeOH in Eppendorf tubes. All tubes were centrifuged (16000 relative centrifugal force, 4 °C, 20 min). Subsequently, 600 µL supernatant was extracted carefully and filled into HPLC vials. […] Compounds solubility was calculated by AUC of compound in PBS divided by AUC of reference solution multiplied by concentration of the compound in solution.

Compound | Solubility (in words)
O=C(NCCCN(CCCc1ccccc1)Cc1ccccc1)c1ccc(-c2ccccc2)s1 [Compound 30, N-(3-(benzyl(3-phenylpropyl)amino)propyl)-5-phenylthiophene-2-carboxamide] | good solubility

target: T1, human ACKR3 (Homo sapiens, UniProt P25106); assay: ACKR3 β-Arrestin recruitment assay (NanoLuc complementation, NanoBiT) in HEK293T cells; format: cell-based; conditions: ACKR3; HEK293T cells; average value of three independent experiments
T1 construct: expressed in transfected cells; host or cells: HEK293T
T1 sequence (P25106 whole entry): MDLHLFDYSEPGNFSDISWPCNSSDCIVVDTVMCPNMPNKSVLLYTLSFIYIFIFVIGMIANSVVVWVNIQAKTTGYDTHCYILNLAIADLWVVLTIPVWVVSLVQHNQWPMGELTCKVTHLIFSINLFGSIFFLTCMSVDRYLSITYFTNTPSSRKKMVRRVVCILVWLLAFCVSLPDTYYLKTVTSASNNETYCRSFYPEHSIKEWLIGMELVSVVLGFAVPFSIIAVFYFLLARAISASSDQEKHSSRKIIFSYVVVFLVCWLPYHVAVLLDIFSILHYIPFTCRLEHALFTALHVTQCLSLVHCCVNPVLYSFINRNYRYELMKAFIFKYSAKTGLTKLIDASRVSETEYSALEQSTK
T1 sequence (P49407 whole entry partner): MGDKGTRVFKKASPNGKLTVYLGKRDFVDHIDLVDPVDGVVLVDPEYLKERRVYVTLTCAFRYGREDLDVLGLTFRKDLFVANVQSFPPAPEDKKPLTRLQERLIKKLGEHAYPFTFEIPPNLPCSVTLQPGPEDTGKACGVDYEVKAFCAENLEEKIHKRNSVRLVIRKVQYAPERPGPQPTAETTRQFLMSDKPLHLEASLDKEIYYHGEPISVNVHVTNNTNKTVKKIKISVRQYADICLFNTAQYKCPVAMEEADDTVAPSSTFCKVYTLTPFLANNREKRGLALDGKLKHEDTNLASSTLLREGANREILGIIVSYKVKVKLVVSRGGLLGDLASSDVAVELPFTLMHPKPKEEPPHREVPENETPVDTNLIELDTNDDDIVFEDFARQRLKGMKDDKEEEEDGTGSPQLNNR
Protocol: ACKR3 β-Arrestin Recruitment Assay. […] T.; Encell, L. P.; Wood, K. V. Nanoluc complementation reporter optimized for accurate measurement of protein interactions in cells. […] B.; Reynders, N.; Vanderplasschen, A.; Ollert, M.; Bouvier, M.; Szpakowska, M.; Chevigné, A. Proadrenomedullin n-terminal 20 peptides (pamps) are agonists of the chemokine scavenger receptor ACKR3/CXCR7. […] The prepared cells were then treated with compounds at concentrations ranging from 0.3 nM to 100 µM. Induction of β-Arrestin recruitment to receptors was evaluated by measuring bioluminescence with a Mithras LB940 luminometer (Berthold Technologies).
All curves were fitted to data points generated from the mean of at least three independent experiments. Results with values of p < 0.05 were considered statistically significant.

Compound | EC50 [µM]
O=C(NCCCN(CCCc1ccccc1)Cc1ccccc1)c1ccc(-c2ccccc2)s1 [Compound 30, N-(3-(benzyl(3-phenylpropyl)amino)propyl)-5-phenylthiophene-2-carboxamide] | 1.06
CC(C)(C)OC(=O)N1CCCN(C(=O)c2csc(-c3ccccc3)n2)CC1 [Compound 45, tert-butyl 4-(2-phenylthiazole-4-carbonyl)-1,4-diazepane-1-carboxylate] | 5
CC(C)(C)OC(=O)N1CCN(CCCNC(=O)c2csc(-c3ccccc3)n2)CC1 [Compound 46, tert-butyl 4-(3-(2-phenylthiazole-4-carboxamido)propyl)piperazine-1-carboxylate] | 2.7
CC(C)(C)OC(=O)N1CCN(CCCNCc2csc(-c3ccccc3)n2)CC1 [Compound 47, tert-butyl 4-(3-(((2-phenylthiazol-4-yl)methyl)amino)propyl)piperazine-1-carboxylate] | 2.4
O=C(NCCCN(CCc1ccccc1)Cc1ccccc1)c1ccc(-c2ccccc2)s1 [Compound 29, N-(3-(benzyl(phenethyl)amino)propyl)-5-phenylthiophene-2-carboxamide] | 0.459

same assay, conditions: efficacy of CXCL12 at 300 nM set as 100%; average of three independent experiments

Compound | Efficacy (Emax) vs CXCL12 [%]
CC(C)(C)OC(=O)N1CCCN(C(=O)c2csc(-c3ccccc3)n2)CC1 [Compound 45, tert-butyl 4-(2-phenylthiazole-4-carbonyl)-1,4-diazepane-1-carboxylate] | 29
CC(C)(C)OC(=O)N1CCN(CCCNC(=O)c2csc(-c3ccccc3)n2)CC1 [Compound 46, tert-butyl 4-(3-(2-phenylthiazole-4-carboxamido)propyl)piperazine-1-carboxylate] | 65
CC(C)(C)OC(=O)N1CCN(CCCNCc2csc(-c3ccccc3)n2)CC1 [Compound 47, tert-butyl 4-(3-(((2-phenylthiazol-4-yl)methyl)amino)propyl)piperazine-1-carboxylate] | 89
